Experiments:
Type in all cases: binding
[1] = system: gelatin; assay: change in frequency with lipid membrane sensor, complex with gelatin
Experimental: (§1) The electrode of a sensor equipped with a quartz oscillator (Fragrance Sensor SF-105, product of Sogo Pharmaceutical Co., Ltd.) was coated with a lipid membrane composed of dioctadecylammonium polystyrenesulfonic acid to obtain a lipid membrane sensor.
The change in frequency was also measured in the same manner as above except that gelatin (Aldrich Chemical Company, Inc.) or bovine serum albumin (Wako Junyaku Kogyo) was used instead of the mouse proline-rich peptide, and tannic acid (concentration after addition to buffer solution [hereunder referred to simply as “concentration in buffer solution”]: 8 mg/l, and polyphenone 100 (concentration in buffer solution: 50 mg/l) were added. As comparative tests, the same measurement was conducted using sucrose (sweet component, concentration in buffer solution: 1.7 mM), quinine sulfate (bitter component, concentration in buffer solution: 0.27 μM), tartaric acid (acidic component, concentration in buffer solution: 14 μM), NaCl (salty component, concentration in buffer solution: 1.1 mM) and glutamic acid (acidic/savory component, concentration in buffer solution: 30 μM). Also, the change in frequency during 4 minutes after adding different components using bovine serum albumin is shown in FIG. 11. […]

[2] = system: mouse proline-rich peptide; assay: change in frequency with lipid membrane sensor, complex with mouse proline-rich peptide; settings: FIG. 9
Source text: as §1
The obtained astringency evaluating apparatus was used for measurement of the change in frequency corresponding to adsorption on to the lipid membrane by complex between proline-rich peptide and tannic acid.
First, the sensor element measuring section of the lipid membrane sensor was immersed in a 25 mM acetate buffer solution (pH 4.3) dissolving 50, 100 or 150 mg/l of mouse proline-rich peptide (Sawady Technologies), and stabilization of frequency was confirmed. Next, 0.1 ml of tannic acid was added to each mouse proline-rich peptide/acetate buffer solution, and the change in frequency was measured up to 5 minutes after addition. For the measurement, the tannic acid concentration of the buffer solution immediately after tannic acid addition was 8 mg/l.

[3] = molecular target: T1, bovine serum albumin (Bos taurus, UniProt P02769); assay: change in frequency with lipid membrane sensor, complex with bovine serum albumin; settings: bovine serum albumin in acetate buffer, 4 minutes after adding, tannic acid 8 mg/l, polyphenone 100 50 mg/l, FIG. 11
T1 construct: purchased Wako Junyaku Kogyo
T1 sequence (P02769 25-607): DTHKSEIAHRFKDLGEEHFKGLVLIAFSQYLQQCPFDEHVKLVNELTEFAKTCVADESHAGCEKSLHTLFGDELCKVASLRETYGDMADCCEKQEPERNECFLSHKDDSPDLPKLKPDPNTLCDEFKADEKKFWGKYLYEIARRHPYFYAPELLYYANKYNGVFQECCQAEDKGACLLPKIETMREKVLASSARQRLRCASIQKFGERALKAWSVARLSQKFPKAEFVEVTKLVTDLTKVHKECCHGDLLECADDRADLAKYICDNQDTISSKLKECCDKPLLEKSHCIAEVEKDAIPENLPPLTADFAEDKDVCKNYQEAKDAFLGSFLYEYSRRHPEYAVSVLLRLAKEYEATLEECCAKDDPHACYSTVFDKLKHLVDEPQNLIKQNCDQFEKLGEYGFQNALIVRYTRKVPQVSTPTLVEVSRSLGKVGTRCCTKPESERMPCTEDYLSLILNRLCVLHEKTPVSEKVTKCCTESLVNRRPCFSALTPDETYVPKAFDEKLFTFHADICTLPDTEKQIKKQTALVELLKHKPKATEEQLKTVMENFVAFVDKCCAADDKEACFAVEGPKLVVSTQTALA
Experimental: as §1
The change in frequency was also measured in the same manner as above except that gelatin (Aldrich Chemical Company, Inc.) or bovine serum albumin (Wako Junyaku Kogyo) was used instead of the mouse proline-rich peptide, and tannic acid (concentration after addition to buffer solution [hereunder referred to simply as “concentration in buffer solution”]: 8 mg/l, and polyphenone 100 (concentration in buffer solution: 50 mg/l) were added. As comparative tests, the same measurement was conducted using sucrose (sweet component, concentration in buffer solution: 1.7 mM), quinine sulfate (bitter component, concentration in buffer solution: 0.27 μM), tartaric acid (acidic component, concentration in buffer solution: 14 μM), NaCl (salty component, concentration in buffer solution: 1.1 mM) and glutamic acid (acidic/savory component, concentration in buffer solution: 30 μM). Also, the change in frequency during 4 minutes after adding different components using bovine serum albumin is shown in FIG. 11.

[4] = system: gelatin; assay: change in frequency with gelatin sensor (quartz oscillator with gelatin immobilized on the electrode); settings: catechin 2 ppm and 6 ppm; for change in frequency: gelatin sensor in distilled water, up to 4 minutes after addition, quercetin and epicatechin 20 μM
Experimental: First, the gold electrode (diameter: 5 mm) of a sensor equipped with a quartz oscillator (Fragrance Sensor SF-105, product of Sogo Pharmaceutical Co., Ltd.) was immersed in 20 ml of a 1.2 N sodium hydroxide solution for 20 minutes, after which the electrode surface was washed with 500 ml of distilled water and immersed in 1.2 N dilute hydrochloric acid for 2 minutes. The electrode surface was then washed with distilled water and immersed in 12 N concentrated hydrochloric acid for 5 minutes, and the electrode was subsequently washed thoroughly with distilled water and dried at 100° C. for 20 minutes to obtain a quartz oscillator having hydroxyl groups arranged on the electrode surface.
After air-cooling the quartz oscillator, it was immersed in 0.3 ml of a 2% 3-aminopropyltriethoxysilane/acetone solution and allowed to stand at room temperature for 20 hours to introduce amino groups on to the electrode surface. The quartz oscillator was then subjected to ultrasonic washing treatment in 20 ml of acetone and dried at 70° C. for 90 minutes.
Next, 30 μl of 2.5% glutaraldehyde/20 mM phosphate buffer solution (pH 7.0) was placed on the amino group-introduced electrode surface, and the electrode was allowed to stand at room temperature for 2 hours. After then washing the electrode surface in 20 ml of 20 mM phosphate buffer solution and 20 ml of distilled water, it was mounted on an aqueous phase measuring sensor. […]
First, the sensor element measuring section of the gelatin sensor was immersed for 30 seconds in 100 ml of distilled water, and stabilization of frequency was confirmed. Next, 0.1 ml of a catechin/ethanol solution was added to the distilled water, and the change in frequency was measured up to 4 minutes after addition. […]
The change in frequency was also measured in the same manner as above except that quercetin/ethanol solutions and epicatechin/ethanol solutions were used instead of the catechin/ethanol solutions, and the astringency component concentration after addition to the distilled water was adjusted to 20 μM. […]

change in frequency [3] | Molecule | correlation between tannic acid concentration and change in frequency ([1]; 10 mg/l gelatin/25 mM acetate buffer solution, FIG. 12) | change in frequency ([1]; gelatin in acetate buffer, 4 minutes after adding, tannic acid 8 mg/l, polyphenone 100 50 mg/l, FIG. 10) | change in frequency ([2]; 25 mM acetate buffer pH 4.3, mouse proline-rich peptide 50, 100 or 150 mg/l, tannic acid 8 mg/l, up to 5 minutes) | change in frequency versus concentration ([2]; mouse proline-rich peptide) | change in frequency [4] | change in frequency versus catechin concentration ([4]; gelatin sensor, FIG. 5)
notable change in frequency | O=C(OC[C@H]1O[C@@H](OC(=O)c2cc(O)c(O)c(OC(=O)c3cc(O)c(O)c(O)c3)c2)[C@H](OC(=O)c2cc(O)c(O)c(OC(=O)c3cc(O)c(O)c(O)c3)c2)[C@@H](OC(=O)c2cc(O)c(O)c(OC(=O)c3cc(O)c(O)c(O)c3)c2)[C@@H]1OC(=O)c1cc(O)c(O)c(OC(=O)c2cc(O)c(O)c(O)c2)c1)c1cc(O)c(O)c(OC(=O)c2cc(O)c(O)c(O)c2)c1 [tannic acid] | adequately satisfactory correlation | notable change in frequency | notable change in frequency | greater with increasing tannic acid concentration |  | 
 | O=c1c(O)c(-c2ccc(O)c(O)c2)oc2cc(O)cc(O)c12 [quercetin] |  |  |  |  | notable change in frequency | 
 | catechin |  |  |  |  | notable change in frequency | greater with increasing catechin concentration

Source: patent publication US20040086607A1, “Food astringency evaluating method and astringency evaluating apparatus” (SAPPORO BREWERIES LIMITED, priority 2001, published 2004)
